Assays:
patients' biofilm = test: Tests performed on patients' biofilm
[1] = estimated / in the order of; cited from earlier work
[2] = assay type: physicochemical
Description: The pKa and the Ka values are based on literature references, which include: • E. P. Serjeant and B. Dempsey (eds.), Ionization Constants of Organic Acids in Solution, IUPAC Chemical Data Series No. 23, Pergamon Press, Oxford, UK, 1979; • Part of Journal of Research of the National Bureau of Standards. Volume 31, December 1943, pH VALUES OF ACID.SALT MIXTURES OF SOME AROMATIC SULFONIC ACIDS AT VARIOUS TEMPERATURES AND A CRITERION OF COMPLETENESS OF DISSOCIATION, By Walter j. Hamer. Gladys D. Pinching, and S. F. Acree; • Guthrie, J. P. Hydrolysis of esters of oxy acids: pKa values for strong acids. Can. J. Chem. 1978, 56, 2342-2354;

acid form remaining undissociated upon contact with the biofilm [2] | SMILES | antimicrobial activity (patients' biofilm) | acid dissociation constant, Ka [1]
 | Cc1cccc(S(=O)(=O)O)c1 [3-methylbenzenesulphonic acid] | considerable antimicrobial activity | ~600
 | CCc1ccc(S(=O)(=O)O)cc1 [4-Ethylbenzenesulphonic acid] | considerable antimicrobial activity | ~600
about 57% | CCCCCCCCCCCCc1ccc(S(=O)(=O)O)cc1 [4-dodecylbenzenesulphonic acid] |  | 2-3

From patent publication US20250235417A1, “Compositions for acute and chronic wounds” (DEBx Medical Holding B.V., priority 2021, published 2025)
